We go through 21 compounds from patent publication US11883387B2, “PqsR inverse agonists” (HELMHOLTZ-ZENTRUM FÜR INFEKTIONSFORSCHUNG GMBH, priority 2018, dated 2024).

One series addresses PqsR (Pseudomonas aeruginosa, UniProt Q9I4X0). Nature of the series: E. coli based β-galactosidase reporter gene assay (PqsR inverse agonistic activity). Type of series: cell-based. Further details: expressed in transfected cells; host or cells: Escherichia coli DH5α. In short, it runs like this: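 E. coli DH5α carrying pEAL08-2 (tac-driven pqsR with pqsA-lacZ) was grown to OD600 0.2 and incubated with 0.001–10 μM compound plus 50 nM PQS for 2.5 h at 37 °C. β-Galactosidase activity was measured by ONPG conversion in permeabilized cells and normalized between the no-PQS and solvent controls. IC50 came from concentration variation.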
(Reporter assays use an easily measured gene product as a stand-in for the process of interest.)

The nature of series [1]: Kinetic Turbidimetric Aqueous Solubility at room temperature for 5 min. Format: physicochemical. Particulars: PBS buffer, kinetic from dmso stock, 2% DMSO. The method, boiled down:
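Compound diluted in PBS across typically 0.4–200 μM (final DMSO 2%), held 5 min at room temperature. Turbidity read as absorbance at 620 nm against vehicle control. Four-parameter sigmoidal fit of normalized absorbances with AUC calculation gives Log S.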

Series [2] in a line: Metabolic stability in mouse liver microsomes (MLM). Type of series: in vitro ADME. To be noted: 1 μM compound, 0.5 mg/mL MLM, 1 mM NADPH, 37° C., read-out: half-life (t1/2) towards MLM. The procedure: For the evaluation of phase I metabolic stability, the compound (1 μM) was incubated with 0.5 mg/mL MLM (Corning) and 1 mM NADPH at 37° C. for 0, 5, 10, 15 and 30 min. The metabolic stability of Verapamil, Diphenhydramine and Benzydamine (1 μM each) were determined in parallel to confirm the enzymatic activity of the MLM. The incubation was stopped by addition of 2 volumes of acetonitrile containing internal standard (1 μM Leucine Enkephaline). Samples were centrifuged (15 min, 3,500 rpm). Concentration of the remaining test compound at the different time points was analyzed by HPLC-MS/MS and used to determine half-life (t1/2).
(Liver microsomes are vesicles of endoplasmic reticulum, rich in cytochrome P450 enzymes.)

Series [3] deals with P. aeruginosa pyocyanin production. Nature of the series: Pyocyanin assay. To be noted: Pseudomonas aeruginosa, PA14, 16 h, read-out: IC50-value towards pyocyanin production, PA14 in PPGAS medium, 16 h. Type of series: cell-based, P. aeruginosa PA14. In short, it runs like this:
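PA14 in PPGAS medium from OD600 0.02 grown 16 h at 37 °C, 200 rpm, with compounds. Pyocyanin extracted with chloroform, back-extracted into 0.2 M HCl, OD520 normalised to OD600.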

The nature of series [4]: Metabolic stability against human hepatic S9 fraction. Format: in vitro ADME. To be noted: pooled human liver S9 fraction; 1 μM compound, 1 mg/mL pooled human liver S9, phase I and II cofactors, 37° C.; read-out: half-life (t1/2) towards human hepatic S9 fraction. The procedure: For the evaluation of combined phase I and phase II metabolic stability, the compound (1 μM) was incubated with 1 mg/mL pooled human liver S9 fraction (BD Gentest), 2 mM NADPH regenerating system, 1 mM UDPGA, 10 mM MgCl2 and 0.1 mM PAPS at 37° C. for 0, 5, 15, 30 and 60 min. The metabolic stability of Testosterone (1 μM) and 7-hydroxycoumarin (1 μM) were determined in parallel to confirm the enzymatic activity of the S9 fraction. The incubation was stopped by precipitation of S9 enzymes with 2 volumes of cold acetonitrile containing internal standard (750 nM Diphenhydramine). Samples were stored on ice for 10 min and precipitated protein was removed by centrifugation (10 min, 4° C., 17,000 g). Concentration of the remaining test compound at the different time points was analyzed by LC-MS/MS (TSQ Quantum Access MAX, Thermo Fisher, Dreieich, Germany) and used to determine half-life (t/2).

Chain of PqsR (Q9I4X0 whole entry): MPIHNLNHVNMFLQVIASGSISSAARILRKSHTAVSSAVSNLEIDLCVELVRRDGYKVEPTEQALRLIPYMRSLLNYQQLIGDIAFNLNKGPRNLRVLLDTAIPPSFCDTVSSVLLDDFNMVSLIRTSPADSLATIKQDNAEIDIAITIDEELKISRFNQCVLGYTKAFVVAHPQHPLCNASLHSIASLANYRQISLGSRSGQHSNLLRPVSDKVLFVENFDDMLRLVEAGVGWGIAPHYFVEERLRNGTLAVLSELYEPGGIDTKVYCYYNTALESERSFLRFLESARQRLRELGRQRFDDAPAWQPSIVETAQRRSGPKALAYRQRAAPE

`FC(F)(F)c1cc(NCc2cnc(-c3ccc(Oc4ccccc4)cc3)nc2)ccn1` [Compound 105, N-((2-(4-Phenoxyphenyl)pyrimidin-5-yl)methyl)-2-(trifluoromethyl)pyridin-4-amine]: the IC50 on PqsR was 51 to 250 nM; in series [3], 251 to 1000 nM. The solubility at 5 min in series [1] is > 10 µM. The half-life at 1 μM in series [2] is 31 to 60 min.
As for `CC(C)Oc1ncc(-c2ncc(CNc3ccnc(C(F)(F)F)c3)cn2)cc1Cl` [Compound 164, N-((2-(5-chloro-6-isopropoxypyridin-3-yl)pyrimidin-5-yl)methyl)-2-(trifluoromethyl)pyridin-4-amine], the IC50 on PqsR was ≤ 50 nM; in series [3] it was 251 to 1000 nM. The solubility at 5 min in series [1] is > 25 µM. Also, the half-life at 1 μM in series [2] was > 60 min.
On to `FC(F)(F)c1cc(SCc2cn(-c3ccc(Oc4ccccc4)cc3)nn2)ccn1` [Compound 054, 4-(((1-(4-phenoxyphenyl)-1H-1,2,3-triazol-4-yl)methyl)thio)-2-(trifluoromethyl)pyridine], for which the IC50 is ≤ 50 nM on PqsR and 251 to 1000 nM in series [3]. In addition, the half-life at 1 μM in series [4] was > 60 min.
For `FC(F)(F)c1cc(NCc2cn(-c3ccc(-n4ncc5ccccc54)cc3)nn2)ccn1` [Compound 046, N-((1-(4-(1H-indazol-1-yl)phenyl)-1H-1,2,3-triazol-4-yl)methyl)-2-(trifluoromethyl)pyridin-4-amine], the IC50 on PqsR was 51 to 250 nM; in series [3] it was 251 to 1000 nM. In addition, the solubility at 5 min in series [1] is > 25 µM. Also, the half-life at 1 μM in series [2] is 31 to 60 min.
The like results for `FC(F)(F)c1cc(NCc2cn(-c3ccc(-n4ccc5ccccc54)cc3)nn2)ccn1` [Compound 040, N-((1-(4-(1H-Indol-1-yl)phenyl)-1H-1,2,3-triazol-4-yl)methyl)-2-(trifluoromethyl)pyridin-4-amine] were, in that order, 51 to 250 nM, 251 to 1000 nM, > 25 µM and 31 to 60 min.
The corresponding values for `Fc1ccccc1Oc1ccc(-n2cc(CNc3ccnc(C(F)(F)F)c3)nn2)cc1` [Compound 144, N-((1-(4-(2-fluorophenoxy)phenyl)-1H-1,2,3-triazol-4-yl)methyl)-2-(trifluoromethyl)pyridin-4-amine] are ≤ 50 nM, ≤ 250 nM, > 25 µM and 31 to 60 min.
Consider `FC(F)(F)c1cc(NCc2cnc(-c3ccc(Cl)nc3)s2)ccn1` [Compound 073, N-((2-(6-Chloropyridin-3-yl)thiazol-5-yl)methyl)-2-(trifluoromethyl)pyridin-4-amine], for which the 50% inhibitory concentration (IC50) on PqsR was 51 to 250 nM; in series [3] it was 1000 to 5000 nM. Further, the solubility at 5 min in series [1] is ≥ 100 µM. The half-life at 1 μM in series [2] was > 60 min.
The like results for `FC(F)(F)c1cc(NCc2cn(-c3ccc(-n4cnc5ccccc54)cc3)nn2)ccn1` [Compound 045, N-((1-(4-(1H-benzo[d]imidazol-1-yl)phenyl)-1H-1,2,3-triazol-4-yl)methyl)-2-(trifluoromethyl)pyridin-4-amine] were, in that order, 51 to 250 nM, 1000 to 5000 nM, > 25 µM and 31 to 60 min.
The like results for `CC(C)Oc1ccc(-c2ncc(CNc3ccnc(C(F)(F)F)c3)cn2)cc1` [Compound 106, N-((2-(4-isopropoxyphenyl)pyrimidin-5-yl)methyl)-2-(trifluoromethyl)pyridin-4-amine] were, in that order, 51 to 250 nM, 251 to 1000 nM, > 25 µM and > 60 min.
The corresponding values for `CC(C)Oc1ccc(-c2ncc(CNc3cc(C#N)nc(C(F)(F)F)c3)s2)cc1Cl` [Compound 160, 4-(((2-(3-Chloro-4-isopropoxyphenyl)thiazol-5-yl)methyl)amino)-6-(trifluoromethyl)picolinonitrile] are ≤ 50 nM, ≤ 250 nM, > 10 µM and 31 to 60 min.
Take `Oc1cc(NCc2cn(-c3ccc(Oc4ccccc4)cc3)nn2)cc(C(F)(F)F)n1` [Compound 050, 4-(((1-(4-Phenoxyphenyl)-1H-1,2,3-triazol-4-yl)methyl)amino)-6-(trifluoromethyl)pyridin-2-ol]: the results for the IC50 (at PqsR; in series [3]) were ≤ 50 nM and 1000 to 5000 nM, respectively. For the same compound, the solubility at 5 min in series [1] is ≥ 100 µM. Besides, the half-life at 1 μM in series [2] was > 60 min.
As to `Fc1ccc(Oc2ccc3[nH]c(CNc4ccnc(C(F)(F)F)c4)nc3c2)cc1` [Compound 172, N-((5-(4-fluorophenoxy)-1H-benzo[d]imidazol-2-yl)methyl)-2-(trifluoromethyl)pyridin-4-amine], the solubility at 5 min in series [1] is > 25 µM. Also, the half-life at 1 μM in series [2] fell in the range of 31 to 60 min. In addition, the IC50 in series [3] was 251 to 1000 nM.
`CC(C)Oc1ccc(-c2ccc(CNc3ccnc(C(F)(F)F)c3)nc2)cc1Cl` [Compound 165, N-((5-(3-chloro-4-isopropoxyphenyl)pyridin-2-yl)methyl)-2-(trifluoromethyl)pyridin-4-amine]: the IC50 at PqsR was ≤ 50 nM; in series [3], 251 to 1000 nM. In addition, the solubility at 5 min in series [1] was > 25 µM. Besides, the half-life at 1 μM in series [2] was > 60 min.
The like results for `O=C(c1ccccc1)c1ccc(-n2cc(CNc3ccnc(C(F)(F)F)c3)nn2)cc1` [Compound 004, Phenyl(4-(4-(((2-(trifluoromethyl)pyridin-4-yl)amino)methyl)-1H-1,2,3-triazol-1-yl)phenyl)methanone] were, in that order, ≤ 50 nM, 1000 to 5000 nM, > 25 µM and > 60 min.
In turn, `FC(F)(F)c1cc(SCc2ccc(-c3ccc(Oc4ccccc4)nc3)cn2)ccn1` [Compound 114, 6-Phenoxy-6′-(((2-(trifluoromethyl)pyridin-4-yl)thio)methyl)-3,3′-bipyridine] had an IC50 on PqsR of 51 to 250 nM. The half-life at 1 μM in series [4] is > 60 min.
In the case of `N#Cc1cc(NCc2cn(-c3ccc(Oc4ccccc4)cc3)nn2)ccn1` [Compound 041, 4-(((1-(4-Phenoxyphenyl)-1H-1,2,3-triazol-4-yl)methyl)amino)picolinonitrile], at PqsR, the IC50 was ≤ 50 nM. In addition, the solubility at 5 min in series [1] was > 10 µM. Moreover, in series [2], the half-life at 1 μM fell in the range of 31 to 60 min.
`FC(F)(F)c1cc(NCc2ccc(-c3cnc(Cl)c(Cl)c3)cn2)ccn1` [Compound 102, N-((5′,6′-Dichloro-[3,3′-bipyridin]-6-yl)methyl)-2-(trifluoromethyl)pyridin-4-amine]: the IC50 was in the range of 51 to 250 nM at PqsR and 251 to 1000 nM in series [3]. In addition, in series [1], the solubility at 5 min was > 50 µM. In addition, the half-life at 1 μM in series [2] fell in the range of 31 to 60 min.
With `Nc1cc(OCc2nc3cc(Oc4ccccc4)ccc3[nH]2)nc(C(F)(F)F)n1` [Compound 181, 6-((5-phenoxy-1H-benzo[d]imidazol-2-yl)methoxy)-2-(trifluoromethyl)pyrimidin-4-amine], the IC50 at PqsR is 51 to 250 nM. Moreover, the solubility at 5 min in series [1] was > 50 µM. Moreover, the half-life at 1 μM in series [2] is > 60 min.
The like results for `FC(F)(F)c1cc(NCc2ccc(-c3ccc(Oc4ccccc4)nc3)cn2)ccn1` [Compound 100, N-((6′-Phenoxy-[3,3′-bipyridin]-6-yl)methyl)-2-(trifluoromethyl)pyridin-4-amine] were, in that order, 51 to 250 nM, > 25 µM and 31 to 60 min.
Regarding `FC(F)(F)c1cc(NCc2cn(-c3ccc(-n4ncc5ccncc54)c(Cl)c3)nn2)ccn1` [Compound 147], the IC50 on PqsR is ≤ 50 nM; in series [3] it was 251 to 1000 nM. In series [1], the solubility at 5 min is > 50 µM. For the same compound, the half-life at 1 μM in series [2] is 31 to 60 min.
The compound `FC(F)(F)c1cc(NCc2nc3cc(Cl)c(Cl)cc3[nH]2)ccn1` [Compound 121, N-((5,6-Dichloro-1H-benzo[d]imidazol-2-yl)methyl)-2-(trifluoromethyl)pyridin-4-amine] showed an IC50 on PqsR of 251 to 1000 nM. Further, in series [1], the solubility at 5 min was ≥ 100 µM. In addition, in series [2], the half-life at 1 μM lay within 31 to 60 min.

Usually IC50 stands for the point on the concentration scale where inhibition reaches its midpoint. One may read the solubility as the concentration that dissolves in the medium under given conditions. Read a high solubility as much dissolved substance.
